The source of these data is patent US20120301457A1 (priority 2010, published 2012).

The test addresses recombinant mouse PrP (Mus musculus, UniProt P04925). In kind it is biochemical.
In the case of cerebrosides, the “ability to facilitate amplification and propagation of PrP^Sc” value (shortened to “ability”) is “facilitate prion amplification to a lesser extent”.
For the compound phosphatidylserine, the “ability” value is “facilitate prion amplification to a lesser extent”.
On to phosphatidic acid, for which the “ability” value is “facilitate prion amplification to a lesser extent”.
As for `CCCCC/C=C\C/C=C\C/C=C\C/C=C\CCCC(=O)O[C@H](CO/C=C\CCCCCCCCCCCCCCCC)COP(=O)(O)OCCN` [C18(Plasm)-20:4 PE, 1-(1Z-octadecenyl)-2-arachidonoyl-sn-glycero-3-phosphoethanolamine], the entry is “successfully facilitated propagation”.
As for `CCCCCCCC/C=C\CCCCCCCC(=O)O[C@H](CO/C=C\CCCCCCCCCCCCCCCC)COP(=O)(O)OCCN` [C18(Plasm)-18:1 PE, 1-(1Z-octadecenyl)-2-oleoyl-sn-glycero-3-phosphoethanolamine], the entry is “successfully facilitated propagation”; as for sulfatides, “facilitate prion amplification to a lesser extent”; as for phosphatidylinositol, “facilitate prion amplification to a lesser extent”.
In the case of `CCCCCCCC/C=C\CCCCCCCC(=O)O[C@H](COC(=O)CCCCCCCCCCCCCCC)COP(=O)(O)OCCN` [16:0-18:1 PE, 1-palmitoyl-2-oleoyl-sn-glycero-3-phosphoethanolamine] it was “successfully facilitated propagation”; in that of phosphatidylglycerol, “facilitate prion amplification to a lesser extent”; in that of `CCCCCCCCCCCCCCCC(=O)OC[C@H](COP(=O)(O)OCCN)OC(=O)CCCCCCCCCCCNc1ccc([N+](=O)[O-])c2nonc12` [16:0-12:0 NBD PE, 1-palmitoyl-2-{12-[(7-nitro-2-1,3-benzoxadiazol-4-yl)amino]lauroyl}-sn-glycero-3-phosphoethanolamine], “successfully facilitated propagation”.
Take phosphatidylcholine: the “ability” value is listed as “facilitate prion amplification to a lesser extent”.
